Measured values: patent US20140303092A1 (CHIMERIX, INC., priority 2011, published 2014)

Assay: Study HDP-CDV-201: safety and tolerability (adverse events, laboratory abnormalities, discontinuations)
Type: in vivo, human (adult allogeneic HSCT recipients)
Description: Clinical Studies of HDP-CDV were performed and described in detail in the following Examples. For example, HDP-CDV-201 is a placebo-controlled, dose-escalating trial in HSCT CMV (R+) recipients, evaluating the ability of HDP-CDV to prevent or control CMV infection was carried out. Five cohorts were established in which participants or subjects received either placebo or the HDP-CDV orally, in doses ranging from 40 mg weekly (QW) to 200 mg twice weekly (BIW). Subjects who were post-HSCT were enrolled at the time of engraftment and randomized to HDP-CDV or placebo (3 to 1 ratio) and received blinded therapy until approximately 100 day post-transplantation. HDP-CDV doses were 40 mg QW, 100 mg QW, 200 mg QW, 200 mg BIW and 100 mg BIW. Escalation to the next dose was decided by the data monitoring committee after review of the safety data from the previous Cohort. Subjects who developed CMV disease or CMV infection requiring pre-emptive therapy with local standard of care were discontinued from blinded therapy and followed for 4 weeks. Subjects who completed treatment with blinded therapy were followed for 8 weeks post-therapy.
Data from Study HDP-CDV-201 also provided characterization of the safety and tolerability profile of HDP-CDV when administered for the prevention or control of CMV infection in high risk (R^+) post-HSCT adult subjects.
The Safety population (SAFETY) included all randomized subjects who took at least one dose of study treatment. This population was used to summarize safety outcomes based on the treatment actually received, in cases where a subject was treated contrary to the randomization schedule.
The safety and tolerability profile of HDP-CDV, including subject demographics and Baseline characteristics; the AE profile; and laboratory abnormalities of interest were analyzed in the cohorts followed in this investigation.
Subjects completing the treatment period received a full course of study medication; those completing the entire study attended visits through 8 weeks of follow up. Subjects who discontinued treatment may have done so for protocol specified reasons (e.g. development of clinically significant CMV infection requiring preemptive treatment with excluded anti-CMV medications) or for other reasons (e.g., withdrawal, adverse events, loss to follow-up). The disposition of subjects in Study HDP-CDV-201 during the double-blind, placebo-controlled treatment period (through Week 11) is listed by dosing Cohort in TABLE 23.
Adverse events were examined by severity to ensure that all safety signals were identified in this study population. Because of the frequency of events in HSCT recipients, particular attention was given to evaluation of Grade 3 […], 4 (severe), and 5 (fatal) adverse events.
Only those preferred terms for which at least one Grade 3 or higher event was experienced in any treatment group are listed. Cytomegalovirus-related AEs are excluded from this analysis.
HDP-CDV is a lipid conjugate of CDV. Because CDV is known to have adverse effects on renal function and bone marrow, decreased GFR and persistent neutropenia were identified as AEs of special interest. Key renal and hematological (TABLE 30) laboratory parameters were measured and listed below by Study HDP-CDV-201 treatment groups. TABLE 30 includes abnormal levels of serum creatinine, neutrophils, platelets, WBCs, and hemoglobin and includes data at Screening and during the treatment period.
A common metric for unit based dosing of medications is by weight (mg/kg). When the distribution of weights was examined for all subjects participating in the study, the median was 78 kg and the lower 25th percentile weight was approximately 65 kg, which translates to a cut-off of ˜3 mg/kg for a 200 mg total weekly dose. Based upon this approach, a cut-off of 3 mg/kg was used to assess the frequency of diarrhea and associated GI AEs reported for the subjects in Cohorts 3 or 4a (TABLE 40).

## CCCCCCCCCCCCCCCCOCCCOP(=O)(O)COC(CO)Cn1ccc(N)nc1=O (stereo not drawn) [HDP-CDV]
Cohort 3, >3.0 mg/kg/wk
  Abnormal ALT >3-5x ULN, Screening, subjects: 0
  Abnormal ALT >5-10x ULN, Any Time Between Week 2 and Week 10, subjects: 0
  Abnormal ALT >5-10x ULN, Screening, subjects: 0
  Abnormal ALT >10-20x ULN, Any Time Between Week 2 and Week 10, subjects: 0
  Abnormal ALT >10-20x ULN, Screening, subjects: 0
  Abnormal ALT >20x ULN, Any Time Between Week 2 and Week 10, subjects: 0
  Abnormal ALT >20x ULN, Screening, subjects: 0
Cohort 3, ≦3.0 mg/kg/wk
  Abnormal ALT >3-5x ULN, Any Time Between Week 2 and Week 10, subjects: 3 (12.5%)
  Abnormal ALT >3-5x ULN, Screening, subjects: 0
  Abnormal ALT >5-10x ULN, Any Time Between Week 2 and Week 10, subjects: 5 (20.8%)
  Abnormal ALT >5-10x ULN, Screening, subjects: 0
  Abnormal ALT >10-20x ULN, Any Time Between Week 2 and Week 10, subjects: 0
  Abnormal ALT >10-20x ULN, Screening, subjects: 0
  Abnormal ALT >20x ULN, Any Time Between Week 2 and Week 10, subjects: 1 (4.2%)
  Abnormal ALT >20x ULN, Screening, subjects: 0
Cohort 4
  Grade of hepatobiliary AE hepatomegaly, subject 4019: 1
  Grade of hepatobiliary AE hyperbilirubenemia, subject 4001: 2
  Grade of hepatobiliary AE hyperbilirubinemia, subject 4014: 4
  Grade of hepatobiliary AE hyperbilirubinemia, subject 4041: 1
  Grade of hepatobiliary AE jaundice, subject 4002: 1
  Grade of hepatobiliary AE worsening hyperbilirubinemia, subject 4004: 1
  Outcome of hepatobiliary AE hepatomegaly, subject 4019: recovered/resolved
  Outcome of hepatobiliary AE hyperbilirubenemia, subject 4001: not recovered/not
  Outcome of hepatobiliary AE hyperbilirubinemia, subject 4014: not recovered/not
  Outcome of hepatobiliary AE hyperbilirubinemia, subject 4041: recovered/resolved
  Outcome of hepatobiliary AE jaundice, subject 4002: not recovered/not
  Outcome of hepatobiliary AE worsening hyperbilirubinemia, subject 4004: recovered/resolved
  Relationship of hepatobiliary AE hepatomegaly, subject 4019: not related
  Relationship of hepatobiliary AE hyperbilirubenemia, subject 4001: not related
  Relationship of hepatobiliary AE hyperbilirubinemia, subject 4014: not related
  Relationship of hepatobiliary AE hyperbilirubinemia, subject 4041: not related
  Relationship of hepatobiliary AE jaundice, subject 4002: not related
  Relationship of hepatobiliary AE worsening hyperbilirubinemia, subject 4004: not related
  subjects discontinued due to neutropenia: 0 subject(s)
Cohort 4, 200 mg BIW
  ALT (Screening) >3 × ULN-5 × ULN, subjects: 2 (6.7%)
  ALT (Screening) >5 × ULN-10 × ULN, subjects: 2 (6.7%)
  ALT (Screening) >10 × ULN-20 × ULN, subjects: 0
  ALT (Screening) >20 × ULN, subjects: 0
  ALT (any time during therapy) >3 × ULN-5 × ULN, subjects: 4 (13.8%)
  ALT (any time during therapy) >5 × ULN-10 × ULN, subjects: 6 (20.7%)
  ALT (any time during therapy) >10 × ULN-20 × ULN, subjects: 2 (6.9%)
  ALT (any time during therapy) >20 × ULN, subjects: 0
  AST (Screening) >3 × ULN-5 × ULN, subjects: 1 (3.3%)
  AST (Screening) >5 × ULN-10 × ULN, subjects: 0
  AST (Screening) >10 × ULN-20 × ULN, subjects: 0
  AST (Screening) >20 × ULN, subjects: 0
  AST (any time during therapy) >3 × ULN-5 × ULN, subjects: 6 (20.7%)
  AST (any time during therapy) >5 × ULN-10 × ULN, subjects: 0
  AST (any time during therapy) >10 × ULN-20 × ULN, subjects: 0
  AST (any time during therapy) >20 × ULN, subjects: 0
  Alkaline Phosphatase (Screening) >2.5-5.0 × ULN, subjects: 0
  Alkaline Phosphatase (Screening) >5.0-20.0 × ULN, subjects: 0
  Alkaline Phosphatase (Screening) >20.0 × ULN, subjects: 0
  Alkaline Phosphatase (Screening) >ULN-[…] ULN, subjects: 7 (23.3%)
  Alkaline Phosphatase (any time during therapy) >2.5-5.0 × ULN, subjects: 0
  Alkaline Phosphatase (any time during therapy) >5.0-20.0 × ULN, subjects: 0
  Alkaline Phosphatase (any time during therapy) >20.0 × ULN, subjects: 0
  Alkaline Phosphatase (any time during therapy) >ULN-[…] ULN, subjects: 11 (37.9%)
  GI AE Leading to Study Drug Discontinuation: Abdominal pain, subjects: 1 (3.3%)
  GI AE Leading to Study Drug Discontinuation: Diarrhoea, subjects: 7 (23.3%)
  GI AE Leading to Study Drug Discontinuation: Dyspepsia, subjects: 0
  GI AE Leading to Study Drug Discontinuation: Nausea, subjects: 1 (3.3%)
  GI AE Leading to Study Drug Discontinuation: Vomiting, subjects: 0
  GI AEs Leading to Study Drug Discontinuation: Total subjects discontinued: 9 (30.0%)
  Gastrointestinal AE Abdominal discomfort, subjects: 0
  Gastrointestinal AE Abdominal distention, subjects: 1 (3.3%)
  Gastrointestinal AE Abdominal pain upper, subjects: 3 (10.0%)
  Gastrointestinal AE Abdominal pain, subjects: 11 (36.7%)
  Gastrointestinal AE Constipation, subjects: 3 (10.0%)
  Gastrointestinal AE Diarrhoea, subjects: 21 (70.0%)
  Gastrointestinal AE Diverticulum intestinal haemorragic, subjects: 0
  Gastrointestinal AE Dyspepsia, subjects: 1 (3.3%)
  Gastrointestinal AE Dysphagia, subjects: 0
  Gastrointestinal AE Epigastric discomfort, subjects: 0
  Gastrointestinal AE Flatulence, subjects: 3 (10.0%)
  Gastrointestinal AE GERD, subjects: 2 (6.7%)
  Gastrointestinal AE Gastritis, subjects: 0
  Gastrointestinal AE Haematochezia, subjects: 0
  Gastrointestinal AE Haemorroids, subjects: 2 (6.7%)
  Gastrointestinal AE Large intestinal ulcer, subjects: 0
  Gastrointestinal AE Nausea, subjects: 11 (36.7%)
  Gastrointestinal AE Odynophagia, subjects: 1 (3.3%)
  Gastrointestinal AE Oesophagitis, subjects: 0
  Gastrointestinal AE Retching, subjects: 0
  Gastrointestinal AE Vomiting, subjects: 8 (26.7%)
  Hepatobiliary clinical AE Cholelithiasis, subjects: 0
  Hepatobiliary clinical AE Hepatomegaly, subjects: 1 (3.3%)
  Hepatobiliary clinical AE Hyperbilirubinaemia, subjects: 5 (16.7%)
  Hepatobiliary clinical AE Jaundice, subjects: 1 (3.3%)
  Hepatobiliary clinical AE Liver injury, subjects: 1 (3.3%)
  Intensity of Gastrointestinal AEs, Grade 1, subjects: 3 (10.0%)
  Intensity of Gastrointestinal AEs, Grade 2, subjects: 13 (43.3%)
  Intensity of Gastrointestinal AEs, Grade 3, subjects: 10 (33.3%)
  Intensity of Gastrointestinal AEs, Grade 4, subjects: 0
  Intensity of Gastrointestinal AEs, Grade 5, subjects: 1 (3.3%)
  Serum ALT level, Median fold increase from Baseline at Follow-up Week 1: 1.87 fold
  Serum ALT level, Median fold increase from Baseline at Follow-up Week 4: 1.34 fold
  Serum ALT level, Peak Median fold increase from Baseline: 3.55 fold
  Subjects completed study: 6 (20.0%) n (%)
  Total Bilirubin (Screening) >1-[…] ULN, subjects: 1 (3.3%)
  Total Bilirubin (Screening) >1.5-3 × ULN, subjects: 0
  Total Bilirubin (Screening) >3-10 × ULN, subjects: 0
  Total Bilirubin (Screening) >10 × ULN, subjects: 0
  Total Bilirubin (any time during therapy) >1-[…] ULN, subjects: 3 (10.3%)
  Total Bilirubin (any time during therapy) >1.5-3 × ULN, subjects: 1 (3.4%)
  Total Bilirubin (any time during therapy) >3-10 × ULN, subjects: 1 (3.4%)
  Total Bilirubin (any time during therapy) >10 × ULN, subjects: 0
  incidence of diarrhea: 70%
Cohort 4, 200 mg BIW, N = 30
  Abdominal pain leading to study drug withdrawal: 1 (3.3%)
  All AEs leading to withdrawal: 18 (60.0%)
  Diarrhoea leading to study drug withdrawal: 7 (23.3%)
